Numbered stars: 1 amine (or outer) side, 2 acyl side, 3 side chain; on linkers, the order of the positions; unused ones are H or OH. Bridge positions count the residues as written; N and C are the ends. Square brackets hold non-standard residues; d marks the D form. Peptide text beside a SMILES is read from it. Trp(7-aza,1-CH2COOH) = N[C@@H](Cc1cn(CC(=O)O)c2ncccc12)C(=O)O; Trp(βS-Me,7-OMe) = COc1cccc2c([C@H](C)[C@H](N)C(=O)O)c[nH]c12; X49 = C[N+](C)(C)CC(=O)N[C@H]1C[C@H](C(=O)[*:2])N([*:1])C1; Trp(1-CH2COOH) = N[C@@H](Cc1cn(CC(=O)O)c2ccccc12)C(=O)O; Phe(2-F,4-COOH) = N[C@@H](Cc1ccc(C(=O)O)cc1F)C(=O)O; dPro(trans-4-NMe2) = CN(C)[C@@H]1CN[C@@H](C(=O)O)C1; Trp(7-CN) = N#Cc1cccc2c(C[C@H](N)C(=O)O)c[nH]c12; Trp(7-Cl) = N[C@@H](Cc1c[nH]c2c(Cl)cccc12)C(=O)O; Phe(4-CONH2) = NC(=O)c1ccc(C[C@H](N)C(=O)O)cc1; Phe(4-COOH) = N[C@@H](Cc1ccc(C(=O)O)cc1)C(=O)O; Trp(7-aza) = N[C@@H](Cc1c[nH]c2ncccc12)C(=O)O; X66 = O=C([C@@H](N[*:1])c1cccc(O)c1)[*:2]; Pip(5R-OH) = O=C(O)[C@@H]1CC[C@@H](O)CN1; X1 = O=C([C@@H]1CC[C@H](N[*:1])C1)[*:2]; X42 = C[C@@H](CO)N(CC(=O)[*:2])[*:1]; Pip(4-aza) = O=C(O)[C@@H]1CNCCN1; 4Pal = N[C@@H](Cc1ccncc1)C(=O)O; NMeE = CN[C@@H](CCC(=O)O)C(=O)O; αMeS = C[C@](N)(CO)C(=O)O; Nle = CCCC[C@H](N)C(=O)O; Sar = CNCC(=O)O

This test addresses T1, TNFα-induced NF-κB signal transduction pathway (TNFR1 signaling) in THP-1 cells (Homo sapiens, UniProt P19438).
T1 sequence (P19438 30-455): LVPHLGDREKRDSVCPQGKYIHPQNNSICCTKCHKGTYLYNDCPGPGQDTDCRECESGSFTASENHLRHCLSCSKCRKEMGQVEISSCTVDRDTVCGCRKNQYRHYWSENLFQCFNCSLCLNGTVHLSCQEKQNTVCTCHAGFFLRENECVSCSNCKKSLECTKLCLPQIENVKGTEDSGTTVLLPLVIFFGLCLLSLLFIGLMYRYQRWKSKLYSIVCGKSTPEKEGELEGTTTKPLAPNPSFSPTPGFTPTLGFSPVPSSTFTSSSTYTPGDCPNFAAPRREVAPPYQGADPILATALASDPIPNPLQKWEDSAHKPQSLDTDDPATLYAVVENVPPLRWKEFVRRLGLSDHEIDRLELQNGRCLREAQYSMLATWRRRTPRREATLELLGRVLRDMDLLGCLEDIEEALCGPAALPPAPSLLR
The experiment in a line: THP-1 Lucia NF-κB reporter cell assay, inhibition of TNFα-induced NF-κB signaling. It is filed as cell-based. The note with it: THP-1 NF-κB Lucia reporter cells, 10 ng/mL TNFα, 16-18 h, secreted luciferase; read-out: THP-1 IC50. On the procedure: C. Procedure for THP-1 Lucia NF-κB cells
The inhibition of TNFα-induced NF-κB signal transduction pathways was evaluated in THP-1 cells. THP-1 cells harboring NF-κB-inducible Lucia™ reporter gene (InvivoGen, cat. #thp1-nfkb) designed for monitoring NF-κB signal transduction pathway was employed to assess the inhibitory effect macrocyclic peptides on TNFR1 signaling. The cells were cultured in media containing RPMI 1640, 2 mM L-glutamine, 25 mM HEPES, 10% heat-inactivated fetal bovine serum with appropriate selection antibiotics. Assays were performed in media that was devoid of selection antibiotics. For profiling, 125 nL of peptides in DMSO (10 mM) were dispensed into Falcon® 384-well Optilux white/clear flat bottom TC-treated microtest microplate (Corning, cat. #353963) using Echo® 555. […] A suspension of 1 million cells/mL was dispensed at 20 μL/well in a 384-well plate to a density of 20,000 cells/well and pre-incubated with peptides at 37° C. for 1 h. Subsequently, 5 μL of TNF containing media (recombinant human TNFα; R&D Systems USA, cat. #210-TA-005/CF) or TNF-free media (for controls) was added to the wells. The final concentration of TNFα in the assay in 10 ng/mL. After o.n. incubation at 37° C. (16-18 h), 5 μL of supernatant was aspirated and transferred to a 384-well microplate (PerkinElmer, cat. #6007680) for measurement of secreted luciferase activity with 25 μL of QUANTI-Luc™ luminescence assay reagent (InvivoGen, cat. #rep-qlc1) in each well. The luminescence was measured in EnVision® Multimode Plate Reader (PerkinElmer). Dose response curves were analyzed using a 4-parameter logistic model to calculate IC50 values, reported in Table 2, using TIBCO® Spotfire® software employing appropriate Minimum and Maximum controls.
As for `CCCC[C@@H]1NC(=O)[C@@H]2CC[C@@H](C2)NC(=O)[C@H]([C@@H](C)c2c[nH]c3c(OC)cccc23)NC(=O)CN(C)C(=O)[C@H](Cc2ccc(C(N)=O)cc2)NC(=O)[C@H](Cc2ccc(C(N)=O)cc2)NC(=O)[C@](C)(CO)NC(=O)[C@H](Cc2c[nH]c3c(C#N)cccc23)NC(=O)[C@H](Cc2ccc(C(=O)O)cc2)NC(=O)[C@H](CC(N)=O)NC(=O)CN([C@@H](C)CO)C(=O)[C@H](Cc2c[nH]c3ncccc23)NC(=O)[C@@H]2CC[C@@H](O)CN2C(=O)[C@H](Cc2ccncc2)NC1=O` [SEQ ID NO. 23] (cyclo([4Pal][Pip(5R-OH)][Trp(7-aza)][X42]N[Phe(4-COOH)][Trp(7-CN)][αMeS][Phe(4-CONH2)][Phe(4-CONH2)][Sar][Trp(βS-Me,7-OMe)][X1][Nle])), the IC50 was 0.8 nM. For `CCCC[C@@H]1NC(=O)[C@@H]2CC[C@@H](C2)NC(=O)[C@H]([C@@H](C)c2c[nH]c3c(OC)cccc23)NC(=O)CN(C)C(=O)[C@H](Cc2ccc(O)cc2)NC(=O)[C@H](Cc2ccc(C(=O)O)cc2)NC(=O)[C@](C)(CO)NC(=O)[C@H](Cc2c[nH]c3c(Cl)cccc23)NC(=O)[C@H](Cc2ccc(C(=O)O)cc2F)NC(=O)[C@H](CC(N)=O)NC(=O)[C@H](CCC(=O)O)N(C)C(=O)[C@H](Cc2c[nH]c3ccccc23)NC(=O)[C@@H]2CNCCN2C(=O)[C@H](Cc2ccncc2)NC1=O` [SEQ ID NO. 108] (cyclo([4Pal][Pip(4-aza)]W[NMeE]N[Phe(2-F,4-COOH)][Trp(7-Cl)][αMeS][Phe(4-COOH)]Y[Sar][Trp(βS-Me,7-OMe)][X1][Nle])) the value was 1.2 nM; for `CCCC[C@@H]1NC(=O)CSC[C@@H](C(N)=O)NC(=O)[C@H]([C@@H](C)c2c[nH]c3c(OC)cccc23)NC(=O)CN(C)C(=O)[C@H](c2cccc(O)c2)NC(=O)[C@H](Cc2ccc(C(N)=O)cc2)NC(=O)[C@](C)(CO)NC(=O)[C@H](Cc2c[nH]c3c(Cl)cccc23)NC(=O)[C@H](Cc2ccc(C(=O)O)cc2)NC(=O)[C@H](CC(N)=O)NC(=O)[C@H](CCC(=O)O)N(C)C(=O)[C@H](Cc2cn(CC(=O)O)c3ccccc23)NC(=O)[C@@H]2CNCCN2C(=O)[C@H](Cc2ccncc2)NC1=O` [SEQ ID NO. 52] ({CH2CO}-[Nle][4Pal][Pip(4-aza)][Trp(1-CH2COOH)][NMeE]N[Phe(4-COOH)][Trp(7-Cl)][αMeS][Phe(4-CONH2)][X66][Sar][Trp(βS-Me,7-OMe)]C-NH2; thioether N-14), 3.9 nM. Then `CCCC[C@@H]1NC(=O)[C@@H]2CC[C@@H](C2)NC(=O)[C@H]([C@@H](C)c2c[nH]c3c(OC)cccc23)NC(=O)CN(C)C(=O)[C@H](Cc2ccc(C(N)=O)cc2)NC(=O)[C@H](Cc2ccc(C(N)=O)cc2)NC(=O)[C@](C)(CO)NC(=O)[C@H](Cc2c[nH]c3c(C#N)cccc23)NC(=O)[C@H](Cc2ccc(C(=O)O)cc2)NC(=O)[C@H](CC(N)=O)NC(=O)[C@H]2C[C@H](N(C)C)CN2C(=O)[C@H](Cc2cn(CC(=O)O)c3ncccc23)NC(=O)[C@@H]2CC[C@@H](O)CN2C(=O)[C@H](Cc2ccncc2)NC1=O` [SEQ ID NO. 32] (cyclo([4Pal][Pip(5R-OH)][Trp(7-aza,1-CH2COOH)][dPro(trans-4-NMe2)]N[Phe(4-COOH)][Trp(7-CN)][αMeS][Phe(4-CONH2)][Phe(4-CONH2)][Sar][Trp(βS-Me,7-OMe)][X1][Nle])), with 0.6 nM. Then `CCCC[C@@H]1NC(=O)[C@@H]2CC[C@@H](C2)NC(=O)[C@H]([C@@H](C)c2c[nH]c3c(OC)cccc23)NC(=O)CN(C)C(=O)[C@H](Cc2ccc(C(=O)O)cc2)NC(=O)[C@H](Cc2ccc(C(N)=O)cc2)NC(=O)[C@](C)(CO)NC(=O)[C@H](Cc2c[nH]c3c(C#N)cccc23)NC(=O)[C@H](Cc2ccc(C(=O)O)cc2)NC(=O)[C@H](CC(N)=O)NC(=O)[C@H]2C[C@H](NC(=O)C[N+](C)(C)C)CN2C(=O)[C@H](Cc2cn(CC(=O)O)c3ccccc23)NC(=O)[C@@H]2CNCCN2C(=O)[C@H](Cc2ccncc2)NC1=O` [SEQ ID NO. 139] (cyclo([4Pal][Pip(4-aza)][Trp(1-CH2COOH)][X49]N[Phe(4-COOH)][Trp(7-CN)][αMeS][Phe(4-CONH2)][Phe(4-COOH)][Sar][Trp(βS-Me,7-OMe)][X1][Nle])), with 1 nM.

A word on the IC50: it is the concentration that inhibits the measured activity by half.

Source of the values: patent US20240287138A1, “CYCLIC PEPTIDES FOR INHIBITING TNF RECEPTOR 1 ACTIVITY” (Merck Sharp & Dohme LLC, priority 2023, published 2024).
